# Earlier results as cited in patent EP0611214A2, “Acidic composition and process of using same” (MINNESOTA MINING AND MANUFACTURING COMPANY, priority 1993, dated 1994).
# Conditions: in water, as reported in U.S. Pat. No. 5,080,822, column 4
row,aqueous ambient temperature solubility in weight percent,Structure (SMILES)
1,1.1 weight percent,CC(O)COc1ccccc1 (centres unmarked) [1-phenoxy-2-propanol]
2,2.3 weight percent,OCCOc1ccccc1 [2-phenoxyethanol]
3,0.5 weight percent,CC(=O)c1ccccc1 [acetophenone]
4,4.4 weight percent,OCc1ccccc1 [benzyl alcohol]

row,Structure (SMILES),aqueous ambient temperature solubility in weight percent
1,OCCc1ccccc1 [8-phenylethanol],1.6 weight percent
